Measured values from publication PMC8464850, “Sulfonium Ligands of the α7 nAChR” (Molecules, 2021).
Where two headings read alike, the source gives them in different places.

Legend:
α7 nAChR [1] = target: T1, α7 nAChR (Homo sapiens, UniProt P36544); test: Inhibition of α7 ACh-evoked responses; assay type: cell-based; conditions: for inhibition of responses to 60 µM ACh: compound co-applied at 100 µM; for effect on 60 µM ACh response at 1 mM: compound 1 mM co-applied with 60 µM ACh; for inhibition at 100 µM: read-out: inhibition of responses to 60 µM ACh
T1 construct: expressed in transfected cells; host or cells: Xenopus laevis oocytes (injected RNA)
Method: Figure 4 Effects sulfonium compounds on α7 ACh-evoked net-charge responses. (A) Effects of the sulfonium compounds at 100 µM co-applied with 60 µM relative to responses to 60 µM ACh applied alone. Data are the averages (±SEM) from seven or eight cells under each condition. (B) Effects of select sulfonium compounds at 1 mM co-applied with 60 µM relative to responses to 60 µM ACh applied alone. Data are the averages (±SEM) from seven or eight cells under each condition. Statistical significance was determined by pairwise t-test with p values corrected for multiple comparisons; * p < 0.05, ** p < 0.001.
The sulfonium compounds that were active with TQS but produced little inhibition of ACh response at a concentration of 100 µM were tested as inhibitors of ACh response at a concentration of 1 mM (Figure 4B).
We tested S8 across a range of concentrations for its ability to inhibit 60 µM ACh responses (Figure 5A). Note that we use 60 µM as an ACh control because this concentration gives nearly maximal (93%) net-charge responses, with the time course of the responses roughly following the speed of solution exchange. […] We tested whether inhibition of α7 responses by S8 was surmountable by increasing ACh concentration, consistent with a competitive mechanism of inhibition. However, since α7 responses to concentrations of ACh greater than 60 µM occur more rapidly than solution exchange in the chamber, we first pre-applied 5 µM S8 prior to the co-application of 5 µM S8 with either 60 µM or 1 mM ACh (Figure 5B). The 60 µM net-charge responses were reduced to 28 ± 2% of controls (n = 8) and 60 µM peak currents to 21 ± 3 % controls. The 1 mM net-charge responses were reduced to 56 ± 6 % of those obtained without S8 co-application, although the S8 co-application increased the peak-current amplitudes compared to 60 µM controls from 1.78 ± 0.15 to 3.72 ± 0.81 (n = 8).
Figure 5 Inhibition of α7 ACh-evoked responses by S8. (A) Concentration-response studies of α7 net-charge responses to 60 µM ACh co-applied with increasing concentrations of S8. To confirm the stability of the ACh responses, applications of ACh plus S8 were alternated with applications of ACh alone. Data are the averages of eight cells (±SEM). See text for curve-fit values. (B) Effects of 5 µM S8 on responses to either 60 µM or 1 mM ACh. The traces shown across the top are the averaged raw data from seven cells, each normalized to the peak current of the first ACh control response shown. In order to assure that the S8 was present at 5 µM throughout the ACh-evoked responses, a 30 s pre-application was made of 5 µM S8 alone. The lower traces show averaged responses to 60 µM or 1 mM ACh alone or with the 5 µM S8 pre- and co-application. The details of the data are described in Methods.
(§1) Experiments were conducted using OpusXpress 6000A (Molecular Devices, Union City, CA, USA). Both the voltage and current electrodes were filled with 3 M KCl. Oocytes were voltage-clamped at −60 mV at room temperature (24 °C). The oocytes were bath-perfused with Ringer’s solution (115 mM NaCl, 2.5 mM KCl, 1.8 mM CaCl2, 10 mM HEPES, and 1 μM atropine, pH 7.2) at 2 mL/min for α7 receptors, or 4 mL/min for heteromeric nAChR. To evaluate the effects of experimental compounds, responses were compared to control ACh-evoked responses, defined as the average of two initial applications of ACh made before test applications. ACh control concentrations were 60 µM for α7 receptors; 100 µM for α4(3)β2(2) and α3β4 receptors; 30 µM for α4β2α6β2β3 and muscle-type (αβ1εδ) receptors; and 10 µM for α4(3)β2(2) and α4(2)β2(2)α5 receptors.
Solutions were applied from 96-well plates via disposable tips. Drug applications were 12 s in duration, followed by 181 s washout periods for α7 receptors, or 6 s in duration followed by 301 s washout periods for heteromeric nAChR. […]

α7 nAChR [2] = target: T1, α7 nAChR; test: α7 responses on co-application with the type II PAM TQS (silent agonism); assay type: cell-based; conditions: for response when co-applied with TQS: 100 µM compound with 30 µM racemic TQS, net charge; for α7 functional classification (silent agonist / inactive): inactive alone, active with a PAM = silent agonist
Method: (§2) Compounds were co-applied at a concentration of 100 µM with 30 µM racemic TQS (Figure 3A). All compounds except S4, S5, and S8 gave large responses when co-applied with TQS, consistent with silent agonism of α7 (see Table S1 for ANOVA). Active compounds were also evaluated across a range of concentrations with the alternative PAM, PNU-120596 (Figure 3B). The curve-fit values for Imax (Table 1) should be taken only as approximation of the relative efficacies of the compounds, due to the large variability frequently observed in PNU-120596-potentiated responses, as evidenced by the large SEMs of the responses obtained with high concentrations.
(§3) Figure 3 Responses of α7 nAChR to sulfonium compounds coapplied with PAMs. (A) Potentiation of α7 responses with 30 µM racemic TQS. Shown are the average net-charge responses of seven or eight oocytes ± SEM. (B) Concentration-response studies of peak currents generated by compounds that gave positive responses with TQS, coapplied with 10 µM PNU-120596. Each point represents the average (±SEM) of at least four oocytes.
The human nAChR clones were obtained from Jon Lindstrom (University of Pennsylvania, Philadelphia, PA, USA). Mouse muscle subunit clones were obtained from Jim Boulter (Salk Institute, La Jolla, CA, USA) and Paul Gardner (Dartmouth, Hanover, NH, USA). The human resistance-to-cholinesterase 3 (RIC3) clone was obtained from Millet Treinin (Hebrew University, Jerusalem, Israel) and co-injected with α7 to improve the level and speed of α7 receptor expression without affecting the pharmacological properties of the receptors. Subsequent to linearization and purification of the plasmid DNAs, RNAs were prepared using the mMessage mMachine in vitro RNA transcription kit (Ambion, Austin, TX, USA).
as §1
(§4) Solutions were applied from 96-well plates via disposable tips. Drug applications were 12 s in duration, followed by 181 s washout periods for α7 receptors, or 6 s in duration followed by 301 s washout periods for heteromeric nAChR. The responses were calculated as both peak current amplitudes and net charge, as previously described. Data were collected at 50 Hz, filtered at 20 Hz for α7 receptors or filtered at 5 Hz for heteromeric nAChR, and analyzed by Clampfit (Molecular Devices, San Jose, CA, USA) and Excel (Microsoft, Redmond, WA, USA). Data were expressed as means ± SEM from at least four oocytes for each experiment and plotted with Kaleidagraph 4.5.2 (Abelbeck Software, Reading, PA, USA). Multi-cell averages were calculated for comparisons of complex responses. Averages of the normalized data were calculated for each of the 10,322 points in each of the 206.44 s traces (acquired at 50 Hz), as well as the standard errors for those averages.

α7 nAChR [3] = target: T1, α7 nAChR; test: α7 concentration-response on co-application with 10 µM PNU-120596; assay type: cell-based; conditions: peak currents, co-applied with 10 µM PNU-120596, Hill fit; for IMax (PNU Activation): approximation only
Method: as §2, §3, §1, §4

α3β4 nAChR = target: T2, α3β4 nAChR (Homo sapiens, UniProt P30926+P32297); test: Inhibition of α3β4 100 µM ACh-evoked peak currents; assay type: cell-based; conditions: co-application with 100 µM ACh, peak currents
T2 construct: expressed in transfected cells; host or cells: Xenopus laevis oocytes (injected RNA)
Method: (§5) Although none of the other sulfonium compounds activated neuronal heteromeric receptors, several of them produced inhibition of ACh-evoked responses. Shown in Figure 7A are concentration-response studies for the compounds that were active antagonists of α3β4 nAChR (Table 3). Some compounds were also tested as antagonists of α4β2 subtypes formed with concatamers (Figure 7B).
Figure 7 Inhibition of heteromeric nAChR by sulfonium compounds. (A) Inhibition of α3β4 100 µM ACh-evoked peak currents by the co-application of the sulfonium compounds. Data are the averaged of six to eight oocytes (±SEM). To confirm the stability of the ACh responses, applications of ACh plus the sulfonium compounds were alternated with applications of ACh alone. (B) Inhibition of ACh control peak-current responses of α4-containing nAChR formed with concatamers by 100 µM of the sulfonium compounds indicated. Data are the average of six to eight oocytes (±SEM).
as §1, §4

α7 = conditions: alone and co-applied with an α7 PAM; cited from earlier work
pKa by titration = assay type: physicochemical
From the text: One of the questions that emerges from the data is why aromatic sulfoniums as structurally similar as S5, S9, and S10 provide different responses when coapplied with TQS. Indeed, compounds S5 and S9 virtually overlap in their best docked poses (Supplementary Figure S1), but the α7 response of S9 and TQS was dramatically greater than that of S5 and TQS (p < 0.001, Table S1). The formation of cation–pi interactions is a key feature of the binding of nicotinic orthosteric ligands, and the electronic distribution of the cation can be compared qualitatively in a series of compounds using molecular electrostatic potentials (MEPs). Analysis of the MEPs shown in Figure 9 reveal that the substituents on the benzene ring can modulate the intensity of the positive charge on the sulfonium center. Compound S5, for instance, has two hydroxyl groups which are strongly electron donating, and in comparison to compound S9, which has only one hydroxyl group, the intensity of the positive charge is […]. Another factor may be that a lone pair on the ortho hydroxyl substituent is donating electron density through space to the neighboring sulfonium, redistributing its positive charge. Compound S10 also has an ortho hydroxyl group, but unlike compound S5, compound S10 also has a nitro group, which is a strong electron-withdrawing group that may offset the electron-donating impact of the ortho hydroxyl group. Inspection of the MEP surface shown in Figure 9 does indicate that, relative to S5, the S10 sulfonium bears greater positive electrostatic potential. Given that compounds such as para-nitrophenol are acidic, with a pKa of ~7 for the phenolic hydroxyl, we also considered whether the deprotonated forms of S5, S9, and S10 might be accessible at the pH of our experiments.
Thus, all three compounds have varying proportions of the phenolic OH in the phenoxide form at the pH of Ringers solution used in the experiments. […] Future work on analogs of these compounds may be focused on substituents that are non-ionizable, and thus preserve a positive molecular charge derived from the sulfonium center.

[4] = tested on: α4β2 subtypes formed with concatamers; test: Inhibition of ACh control peak-current responses of α4-containing nAChR formed with concatamers; assay type: cell-based, human; conditions: 100 µM compound, Figure 7B
Method: as §5
Figure 7 Inhibition of heteromeric nAChR by sulfonium compounds. (A) Inhibition of α3β4 100 µM ACh-evoked peak currents by the co-application of the sulfonium compounds. Data are the averaged of six to eight oocytes (±SEM). […]
as §4, with “Drug applications were 12 s in duration, followed by 181 s washout periods for α7 receptors, or 6 s in duration followed by 301 s washout periods for heteromeric nAChR.” left out

[5] = 5 µM S8 pre-applied and co-applied

T1 sequence (P36544 23-502): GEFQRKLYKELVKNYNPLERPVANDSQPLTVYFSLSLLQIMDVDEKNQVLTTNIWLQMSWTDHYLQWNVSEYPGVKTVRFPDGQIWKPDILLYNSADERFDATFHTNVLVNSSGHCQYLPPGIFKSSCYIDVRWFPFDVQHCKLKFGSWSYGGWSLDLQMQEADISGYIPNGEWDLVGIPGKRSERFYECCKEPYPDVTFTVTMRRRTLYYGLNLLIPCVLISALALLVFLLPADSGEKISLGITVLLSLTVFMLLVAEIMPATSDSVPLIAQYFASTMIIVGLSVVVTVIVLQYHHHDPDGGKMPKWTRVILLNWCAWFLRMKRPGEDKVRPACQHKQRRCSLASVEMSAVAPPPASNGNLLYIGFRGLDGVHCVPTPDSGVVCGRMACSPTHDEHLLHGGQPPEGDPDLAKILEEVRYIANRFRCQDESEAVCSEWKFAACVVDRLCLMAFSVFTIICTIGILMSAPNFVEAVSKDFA
T2 sequence (P32297 32-505): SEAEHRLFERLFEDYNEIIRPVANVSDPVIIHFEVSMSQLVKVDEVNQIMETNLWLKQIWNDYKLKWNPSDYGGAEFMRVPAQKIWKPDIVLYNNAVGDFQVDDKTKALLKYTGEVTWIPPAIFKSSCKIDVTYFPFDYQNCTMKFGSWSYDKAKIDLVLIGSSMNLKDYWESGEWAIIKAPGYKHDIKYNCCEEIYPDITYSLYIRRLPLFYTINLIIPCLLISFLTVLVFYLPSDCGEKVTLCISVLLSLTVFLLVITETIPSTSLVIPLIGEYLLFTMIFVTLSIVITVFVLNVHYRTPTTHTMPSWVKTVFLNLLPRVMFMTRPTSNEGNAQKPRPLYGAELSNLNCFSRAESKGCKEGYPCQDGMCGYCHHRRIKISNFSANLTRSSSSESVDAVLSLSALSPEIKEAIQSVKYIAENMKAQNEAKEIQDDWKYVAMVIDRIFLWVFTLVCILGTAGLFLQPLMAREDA
T2 sequence (P30926 22-498): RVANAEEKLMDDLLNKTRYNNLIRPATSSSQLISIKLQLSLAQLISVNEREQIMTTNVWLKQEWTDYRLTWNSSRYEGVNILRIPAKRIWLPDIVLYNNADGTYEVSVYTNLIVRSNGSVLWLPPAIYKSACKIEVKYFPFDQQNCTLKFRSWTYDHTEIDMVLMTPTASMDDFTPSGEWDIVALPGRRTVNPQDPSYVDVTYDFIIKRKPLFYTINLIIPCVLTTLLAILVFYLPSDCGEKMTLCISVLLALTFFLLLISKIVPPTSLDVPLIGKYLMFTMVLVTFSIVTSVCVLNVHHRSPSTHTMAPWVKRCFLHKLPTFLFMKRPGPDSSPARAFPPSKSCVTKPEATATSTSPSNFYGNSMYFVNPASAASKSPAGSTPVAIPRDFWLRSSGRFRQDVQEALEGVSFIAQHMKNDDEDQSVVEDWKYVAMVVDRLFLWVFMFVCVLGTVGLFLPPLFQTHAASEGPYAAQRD

OCC[S+](CCO)CCO.[Br-] [Compound S4, tris(2-hydroxyethyl)sulfonium bromide]
inhibition of responses to 60 µM ACh (α7 nAChR [1]; net charge): failed to produce inhibition | response when co-applied with TQS (α7 nAChR [2]): did not generate responses | α7 functional classification (silent agonist / inactive) (α7 nAChR [2]): simply inactive

CC[S+](CC)CC [Compound S11, triethylsulfonium iodide]
IMax (PNU Activation) (α7 nAChR [3]): >1.8 | effect on 60 µM ACh response at 1 mM (α7 nAChR [1]): not statistically significant | IC50 (α3β4 nAChR): 108 ± 20 µM | α7 functional classification (silent agonist / inactive) (α7 nAChR [2]): silent agonist

CCOC(=O)C[S+](C)C.[Br-] [Compound S2, (2-ethoxy-2-oxoethyl)dimethylsulfonium bromide]
IMax (PNU Activation) (α7 nAChR [3]): 16 ± 6 | effect on 60 µM ACh response at 1 mM (α7 nAChR [1]): significant inhibition | inhibition at 100 µM (α7 nAChR [1]): ≤ 10% | α7 functional classification (silent agonist / inactive) (α7 nAChR [2]): efficacious silent agonist

CC[S+]1CCN(c2ccccc2)CC1.O=S(=O)([O-])C(F)(F)F [1-ethyl-4-phenylthiomorpholin-1-ium trifluoromethanesulfonate]
behaviour at α7 (α7): inactive when applied alone but active when co-applied with an α7 PAM

C[S+](C)c1ccc(O)cc1O [Compound S5, (2,4-dihydroxyphenyl)dimethylsulfonium trifluoromethanesulfonate]
inhibition of responses to 60 µM ACh (α7 nAChR [1]; net charge): failed to produce inhibition | response when co-applied with TQS (α7 nAChR [2]): did not generate responses | α7 functional classification (silent agonist / inactive) (α7 nAChR [2]): simply inactive | pKa (pKa by titration; phenolic hydroxyl, data not shown for S9, S10, read-out: pKa): ~6.3 | pKa (pKa by titration; read-out: pKa for the second hydroxyl): 9.2

C[S+](C)CC(=O)c1ccccc1.F[B-](F)(F)F [Compound S7, dimethyl(2-oxo-2-phenylethyl)sulfonium tetrafluoroborate]
IMax (PNU Activation) (α7 nAChR [3]): >1.1 | α7 functional classification (silent agonist / inactive) (α7 nAChR [2]): silent agonist activity

COc1ccc([N+](=O)[O-])cc1C[S+](C)C.[Br-] [Compound S3, (2-methoxy-5-nitrobenzyl)dimethylsulfonium bromide]
IMax (PNU Activation) (α7 nAChR [3]): 22 ± 2.5 | EC50 (α7 nAChR [3]; read-out: EC50 (PNU Activation)): 263 ± 23 µM | inhibition at 100 µM (α7 nAChR [1]): ~50% | IC50 (α3β4 nAChR): 18 ± 2.6 µM | α7 functional classification (silent agonist / inactive) (α7 nAChR [2]): silent agonist activity

C[S+](Cc1ccccc1)Cc1ccccc1 [Compound S8, dibenzyl(methyl)sulfonium tetrafluoroborate]
60 µM ACh peak currents, % controls (α7 nAChR [1]; [5]): 21 ± 3% | 1 mM ACh net-charge responses, % of those obtained without S8 co-application (α7 nAChR [1]; [5]): 56 ± 6% | remaining activity at 5 µM (α7 nAChR [1]; 5 µM S8 pre-applied and co-applied, n = 8, read-out: 60 µM ACh net-charge responses, % of controls): 28 ± 2% | IC50 (α7 nAChR [1]; net charge, co-application, eight cells, read-out: IC50 for inhibition of 60 µM ACh responses): 4.9 ± 2.7 µM | 1 mM ACh peak-current amplitudes compared to 60 µM controls (α7 nAChR [1]; with 5 µM S8 pre- and co-application, n = 8): 3.72 ± 0.81 | IC50 (α3β4 nAChR): 3.4 ± 0.4 µM | relative antagonist activity [4]: most active antagonist
